Measured values published in patent US11844853B2, “Antiperspirant composition” (Conopco, Inc., priority 2018, dated 2023).

Assay: Percentage flow rate reduction (PFRR) of artificial sweat across a membrane coated with antiperspirant active
Details: metal deposited 0.004 g/membrane; 12 micron pore size, 50 mm dia.; flow of artificial sweat under 60 cm constant water bar pressure (5.9 kPa)
Method: The above solutions were deposited on a membrane as give below such that the metal deposited was 0.004 g/membrane.
Whatman cellulose nitrate membranes (AE 100, 12 micron nominal pore size, 50 mm dia.) were coated with required volume of desired % w/v or w/w solution of ACH in water. The coated membranes were taken out and kept in air for 30 mins. Then the membranes were put into a closed chamber having 250 ml 10% (v/v) ammoniacal solution inside to generate an ammoniacal blanketing at 25-30° C. temperature, for 4 hrs to neutralize the active. Then the neutralized membranes were kept in air for 6 hrs to remove excess moisture and were used for flow rate assessment. The membranes were fitted in the Millipore filtration set up and flow rate of artificial sweat under 60 cm constant water bar pressure was measured. The selected water bar pressure corresponds to 5.9 kPa, which is reported as the average secretory pressure of the sweat glands (avg.SPSG)
Whatman cellulose nitrate membranes (AE 100, 12 micron nominal pore size, 50 mm dia.) were coated with required volume of desired % w/v or w/w solution of zinc complex in ethanol. The coated membranes were taken out and kept in air for 15 mins. […]
The percentage flow rate reduction was calculated using the equation:

| Substance | Avg % PFRR N = 8 [%] |
| --- | --- |
| Zinc lysine complex [Example C, Zinc lysine complex [Zn (lysine)2. Cl2.2H2O]] | 10 |
| Aluminium chlorohydrate [Example A] | 66 |
